From ChEMBL document CHEMBL1140009, “Synthesis, determination of stereochemistry, and evaluation of new bisindole alkaloids from the myxomycete Arcyria ferruginea: an approach for Wnt signal inhibitor” (Bioorg Med Chem Lett, 2007)

Test system: Cancer cell lines
Assay: Inhibition of Wnt signal in cancer cells by luciferase reporter gene assay
Type: cell-based
Settings: Homo sapiens

O=C1NC(=O)[C@@H](c2c[nH]c3cc(O)ccc23)[C@H]1c1c[nH]c2cc(O)ccc12
Activity: Dose-dependent effect

O=C1NC(=O)c2c1c1c3ccc(O)cc3[nH]c1c1[nH]c3cc(O)ccc3c21
Activity: Dose-dependent effect
